This note sets out measurements from publication PMC6253949, “The Inhibitory Action of Kohamaic Acid A Derivatives on Mammalian DNA Polymerase β” (Molecules, 2008).

SMILES strings stand for the structures. Some results are limits rather than exact numbers.

Holding throughout (type): biochemical
The target in one assay is T1, Human DNA polymerase η (Homo sapiens, UniProt Q9Y253).
T1 construct: His6 (C); made in house; host or cells: SF9 insect cells (baculovirus)
T1 sequence (Q9Y253 1-713): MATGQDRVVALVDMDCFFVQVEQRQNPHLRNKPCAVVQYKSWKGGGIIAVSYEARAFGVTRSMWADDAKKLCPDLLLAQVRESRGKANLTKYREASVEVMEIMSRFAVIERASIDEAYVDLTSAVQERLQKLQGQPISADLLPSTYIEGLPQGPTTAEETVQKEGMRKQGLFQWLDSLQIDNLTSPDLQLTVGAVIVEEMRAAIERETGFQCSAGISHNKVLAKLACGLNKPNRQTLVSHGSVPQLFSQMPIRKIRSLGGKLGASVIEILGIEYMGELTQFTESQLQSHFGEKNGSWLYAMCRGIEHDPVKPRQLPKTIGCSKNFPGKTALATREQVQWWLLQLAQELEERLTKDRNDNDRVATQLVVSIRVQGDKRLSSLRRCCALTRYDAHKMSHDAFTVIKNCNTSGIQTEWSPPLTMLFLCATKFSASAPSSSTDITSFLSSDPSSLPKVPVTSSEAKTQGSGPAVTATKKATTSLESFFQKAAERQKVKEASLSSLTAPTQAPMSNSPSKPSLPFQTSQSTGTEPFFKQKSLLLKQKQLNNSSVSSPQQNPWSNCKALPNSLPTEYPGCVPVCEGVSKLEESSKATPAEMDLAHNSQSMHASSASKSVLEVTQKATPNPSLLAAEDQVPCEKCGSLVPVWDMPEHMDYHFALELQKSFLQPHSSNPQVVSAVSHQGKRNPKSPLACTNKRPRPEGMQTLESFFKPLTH
Kind of assay: DNA polymerase assay, human pol η. The source says:
(§1) Pol α was purified from calf thymus by immuno-affinity column chromatography as described by Tamai et al.. Recombinant rat pol β was purified from E. coli JMpβ5 as described by Date et al.. The human pol γ catalytic gene was cloned into pFastBac. Histidine-tagged enzyme was expressed using the BAC-TO-BAC HT Baculovirus Expression System according to the supplier's manual (LIFE TECHNOLOGIES, MD, USA) and purified using ProBoundresin (Invitrogen Japan, Tokyo, Japan). Human pols δ and ε were purified by the nuclear fractionation of human peripheral blood cancer cells (Molt-4) using the second subunit of pols δ and ε-conjugated affinity column chromatography, respectively. Recombinant human pols η and ι tagged with His6 at their C-terminal were expressed in SF9 insect cells using the baculovirus expression system, and were purified as described previously. A truncated form of pol κ (i.e., hDINB1DC) with 6 x His-tags attached at the C-terminal was overproduced using the BAC-to-BAC Baculovirus Expression System kit (GIBCO BRL, MD, USA) and purified as described previously. […]
(§2) For pols, poly(dA)/oligo(dT)12-18 (A/T = 2/1) and dTTP were used as the DNA template-primer and nucleotide (i.e., dNTP) substrate, respectively. […] Activity without the inhibitor was considered 100%, and the remaining activity at each concentration of the inhibitor was determined relative to this value. […]

In another assay the target is T2, Human DNA polymerase λ (Homo sapiens, UniProt Q9UGP5).
T2 construct: His tag; made in house; host or cells: E. coli (from the title of the cited method)
T2 sequence (Q9UGP5 1-575): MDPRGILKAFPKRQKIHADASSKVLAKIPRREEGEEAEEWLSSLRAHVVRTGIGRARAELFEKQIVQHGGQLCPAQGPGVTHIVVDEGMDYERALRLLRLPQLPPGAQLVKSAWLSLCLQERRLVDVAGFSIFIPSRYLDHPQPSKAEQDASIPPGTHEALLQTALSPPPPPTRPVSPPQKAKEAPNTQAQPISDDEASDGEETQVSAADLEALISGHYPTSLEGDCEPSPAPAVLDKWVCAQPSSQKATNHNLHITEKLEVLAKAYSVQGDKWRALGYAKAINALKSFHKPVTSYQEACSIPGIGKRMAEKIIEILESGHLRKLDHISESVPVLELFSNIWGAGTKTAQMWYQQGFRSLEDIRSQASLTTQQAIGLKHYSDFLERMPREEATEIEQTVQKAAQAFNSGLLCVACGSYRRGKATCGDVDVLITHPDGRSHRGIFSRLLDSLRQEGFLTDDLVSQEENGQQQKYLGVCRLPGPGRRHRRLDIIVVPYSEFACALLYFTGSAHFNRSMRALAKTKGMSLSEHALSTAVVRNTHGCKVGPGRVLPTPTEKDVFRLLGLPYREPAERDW
Put plainly: DNA polymerase assay, human pol λ.
Text: as §1, §2

A further assay addresses T3, Taq DNA polymerase (Thermus aquaticus, UniProt P19821).
T3 construct: purchased Takara (Kyoto, Japan)
Kind of assay: DNA polymerase assay, Taq pol. Conditions: incubated at 74 °C.
Text: as §1, §2

T3 sequence (P19821 whole entry): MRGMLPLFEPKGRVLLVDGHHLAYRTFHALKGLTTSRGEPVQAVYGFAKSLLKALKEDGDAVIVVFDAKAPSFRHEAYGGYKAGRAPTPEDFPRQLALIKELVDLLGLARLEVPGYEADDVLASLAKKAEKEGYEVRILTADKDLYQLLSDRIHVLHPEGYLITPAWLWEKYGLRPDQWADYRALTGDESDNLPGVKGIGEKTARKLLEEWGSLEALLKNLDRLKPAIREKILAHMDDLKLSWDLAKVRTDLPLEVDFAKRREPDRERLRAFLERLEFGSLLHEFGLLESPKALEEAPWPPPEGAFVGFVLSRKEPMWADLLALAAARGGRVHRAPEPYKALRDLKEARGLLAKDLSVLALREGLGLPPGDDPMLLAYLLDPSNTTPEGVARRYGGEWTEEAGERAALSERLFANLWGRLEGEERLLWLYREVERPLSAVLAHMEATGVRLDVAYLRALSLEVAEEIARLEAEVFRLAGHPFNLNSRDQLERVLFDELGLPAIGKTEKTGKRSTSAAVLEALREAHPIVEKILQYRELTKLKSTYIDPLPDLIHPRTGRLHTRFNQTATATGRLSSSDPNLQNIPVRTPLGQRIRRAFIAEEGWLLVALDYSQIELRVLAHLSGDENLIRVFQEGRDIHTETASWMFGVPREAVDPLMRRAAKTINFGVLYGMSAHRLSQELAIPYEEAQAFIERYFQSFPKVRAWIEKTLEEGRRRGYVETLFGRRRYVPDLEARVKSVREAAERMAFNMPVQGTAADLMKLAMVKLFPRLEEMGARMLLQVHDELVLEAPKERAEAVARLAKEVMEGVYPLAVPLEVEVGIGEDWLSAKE

Turning to `CC1=CC[C@H]2C(C)(C)CCC[C@]2(C)[C@H]1CCCCCCCCCCCCCCCCC(=O)O` (relative stereo) [compound 11, (1S*,4aS*,8aS*)-17-(1,4,4a,5,6,7,8,8a-octahydro-2,5,5,8a-tetramethylnaphthalen-1-yl)heptadecanoic acid], the IC50 (as a rule, the midpoint of a concentration-inhibition curve) on Human DNA polymerase η was 7.45 ± 0.37 µM; against Human DNA polymerase λ, 4.67 ± 0.23 µM; at Taq DNA polymerase, more than 200 µM. Further, the “Kinetic mode of inhibition” value at Human DNA polymerase λ (with respect to both the DNA template-primer and the dNTP substrate) is on record as “competitive”.
